According to ChEMBL document CHEMBL1152441, “Discovery of [18F]N-(2-(diethylamino)ethyl)-6-fluoronicotinamide: a melanoma positron emission tomography imaging radiotracer with high tumor to body contrast ratio and rapid renal clearance” (J Med Chem, 2009):

What was measured:
[1] = tested on: Spleen; assay: Biodistribution in spleen of mouse B16F0 cells implanted C57BL/6J mouse assessed per gram of tissue at 0.4 to 5.5 MBq, iv after 3 hrs by gamma counter; format: ADME, organism-based; conditions: in vivo
[2] = tested on: Bone; assay: Biodistribution in bone of mouse B16F0 cells implanted C57BL/6J mouse assessed per gram of tissue at 0.4 to 5.5 MBq, iv after 3 hrs by gamma counter; format: ADME, organism-based, Bone element; conditions: in vivo
[3] = tested on: Stomach; assay: Biodistribution in stomach of mouse B16F0 cells implanted C57BL/6J mouse assessed per gram of tissue at 0.4 to 5.5 MBq, iv after 6 hrs by gamma counter; format: ADME, organism-based; conditions: in vivo
[4] = Biodistribution in eye of mouse B16F0 cells implanted C57BL/6J mouse assessed per gram of tissue at 0.4 to 5.5 MBq, iv after 6 hrs by gamma counter; format: ADME, organism-based; conditions: in vivo
[5] = tested on: Lung; assay: Biodistribution in lung of mouse B16F0 cells implanted C57BL/6J mouse assessed per gram of tissue at 0.4 to 5.5 MBq, iv after 0.25 hrs by gamma counter; format: ADME, organism-based; conditions: in vivo
[6] = Biodistribution in tumor of mouse B16F0 cells implanted C57BL/6J mouse assessed per gram of tissue at 0.4 to 5.5 MBq, iv after 1 hr by gamma counter; format: ADME, organism-based, Neoplasm; conditions: in vivo
[7] = tested on: Intestine; assay: Biodistribution in intestine of mouse B16F0 cells implanted C57BL/6J mouse assessed per gram of tissue at 0.4 to 5.5 MBq, iv after 6 hrs by gamma counter; format: ADME, organism-based; conditions: in vivo
[8] = tested on: Spleen; assay: Biodistribution in spleen of mouse B16F0 cells implanted C57BL/6J mouse assessed per gram of tissue at 0.4 to 5.5 MBq, iv after 1 hr by gamma counter; format: ADME, organism-based; conditions: in vivo
[9] = tested on: Bone; assay: Biodistribution in bone of mouse B16F0 cells implanted C57BL/6J mouse assessed per gram of tissue at 0.4 to 5.5 MBq, iv after 1 hr by gamma counter; format: ADME, organism-based, Bone element; conditions: in vivo
[10] = tested on: Intestine; assay: Biodistribution in intestine of mouse B16F0 cells implanted C57BL/6J mouse assessed per gram of tissue at 0.4 to 5.5 MBq, iv after 0.25 hrs by gamma counter; format: ADME, organism-based; conditions: in vivo
[11] = tested on: Thyroid gland; assay: Biodistribution in thyroid of mouse B16F0 cells implanted C57BL/6J mouse assessed per gram of tissue at 0.4 to 5.5 MBq, iv after 1 hr by gamma counter; format: ADME, organism-based; conditions: in vivo
[12] = tested on: Bone; assay: Biodistribution in bone of mouse B16F0 cells implanted C57BL/6J mouse assessed per gram of tissue at 0.4 to 5.5 MBq, iv after 0.25 hrs by gamma counter; format: ADME, organism-based, Bone element; conditions: in vivo
[13] = tested on: Spleen; assay: Biodistribution in spleen of mouse B16F0 cells implanted C57BL/6J mouse assessed per gram of tissue at 0.4 to 5.5 MBq, iv after 0.25 hrs by gamma counter; format: ADME, organism-based; conditions: in vivo
[14] = Biodistribution in tumor of mouse B16F0 cells implanted C57BL/6J mouse assessed per gram of tissue at 0.4 to 5.5 MBq, iv after 6 hrs by gamma counter; format: ADME, organism-based, Neoplasm; conditions: in vivo
[15] = tested on: Thyroid gland; assay: Biodistribution in thyroid of mouse B16F0 cells implanted C57BL/6J mouse assessed per gram of tissue at 0.4 to 5.5 MBq, iv after 6 hrs by gamma counter; format: ADME, organism-based; conditions: in vivo
[16] = tested on: Intestine; assay: Biodistribution in intestine of mouse B16F0 cells implanted C57BL/6J mouse assessed per gram of tissue at 0.4 to 5.5 MBq, iv after 3 hrs by gamma counter; format: ADME, organism-based; conditions: in vivo
[17] = tested on: Stomach; assay: Biodistribution in stomach of mouse B16F0 cells implanted C57BL/6J mouse assessed per gram of tissue at 0.4 to 5.5 MBq, iv after 1 hr by gamma counter; format: ADME, organism-based; conditions: in vivo
[18] = tested on: Thyroid gland; assay: Biodistribution in thyroid of mouse B16F0 cells implanted C57BL/6J mouse assessed per gram of tissue at 0.4 to 5.5 MBq, iv after 3 hrs by gamma counter; format: ADME, organism-based; conditions: in vivo
[19] = tested on: Stomach; assay: Biodistribution in stomach of mouse B16F0 cells implanted C57BL/6J mouse assessed per gram of tissue at 0.4 to 5.5 MBq, iv after 0.25 hrs by gamma counter; format: ADME, organism-based; conditions: in vivo
[20] = Biodistribution in tumor of mouse B16F0 cells implanted C57BL/6J mouse assessed per gram of tissue at 0.4 to 5.5 MBq, iv after 3 hrs by gamma counter; format: ADME, organism-based, Neoplasm; conditions: in vivo
[21] = tested on: Stomach; assay: Biodistribution in stomach of mouse B16F0 cells implanted C57BL/6J mouse assessed per gram of tissue at 0.4 to 5.5 MBq, iv after 3 hrs by gamma counter; format: ADME, organism-based; conditions: in vivo
[22] = tested on: Lung; assay: Biodistribution in lung of mouse B16F0 cells implanted C57BL/6J mouse assessed per gram of tissue at 0.4 to 5.5 MBq, iv after 1 hr by gamma counter; format: ADME, organism-based; conditions: in vivo
[23] = Biodistribution in eye of mouse B16F0 cells implanted C57BL/6J mouse assessed per gram of tissue at 0.4 to 5.5 MBq, iv after 3 hrs by gamma counter; format: ADME, organism-based; conditions: in vivo
[24] = Biodistribution in tumor of mouse B16F0 cells implanted C57BL/6J mouse assessed per gram of tissue at 0.4 to 5.5 MBq, iv after 0.25 hrs by gamma counter; format: ADME, organism-based, Neoplasm; conditions: in vivo
[25] = tested on: Bone; assay: Biodistribution in bone of mouse B16F0 cells implanted C57BL/6J mouse assessed per gram of tissue at 0.4 to 5.5 MBq, iv after 6 hrs by gamma counter; format: ADME, organism-based, Bone element; conditions: in vivo
[26] = tested on: Thyroid gland; assay: Biodistribution in thyroid of mouse B16F0 cells implanted C57BL/6J mouse assessed per gram of tissue at 0.4 to 5.5 MBq, iv after 0.25 hrs by gamma counter; format: ADME, organism-based; conditions: in vivo
[27] = tested on: Intestine; assay: Biodistribution in intestine of mouse B16F0 cells implanted C57BL/6J mouse assessed per gram of tissue at 0.4 to 5.5 MBq, iv after 1 hr by gamma counter; format: ADME, organism-based; conditions: in vivo
[28] = tested on: Spleen; assay: Biodistribution in spleen of mouse B16F0 cells implanted C57BL/6J mouse assessed per gram of tissue at 0.4 to 5.5 MBq, iv after 6 hrs by gamma counter; format: ADME, organism-based; conditions: in vivo
[29] = tested on: Lung; assay: Biodistribution in lung of mouse B16F0 cells implanted C57BL/6J mouse assessed per gram of tissue at 0.4 to 5.5 MBq, iv after 6 hrs by gamma counter; format: ADME, organism-based; conditions: in vivo
[30] = Biodistribution in eye of mouse B16F0 cells implanted C57BL/6J mouse assessed per gram of tissue at 0.4 to 5.5 MBq, iv after 0.25 hrs by gamma counter; format: ADME, organism-based; conditions: in vivo
[31] = Biodistribution in eye of mouse B16F0 cells implanted C57BL/6J mouse assessed per gram of tissue at 0.4 to 5.5 MBq, iv after 1 hr by gamma counter; format: ADME, organism-based; conditions: in vivo
[32] = tested on: Lung; assay: Biodistribution in lung of mouse B16F0 cells implanted C57BL/6J mouse assessed per gram of tissue at 0.4 to 5.5 MBq, iv after 3 hrs by gamma counter; format: ADME, organism-based; conditions: in vivo
[33] = Lipophilicity, log P at pH 7.5; format: physicochemical; conditions: buffer

Drug uptake [1] [%]	Drug uptake [2] [%]	Drug uptake [3] [%]	Drug uptake [4] [%]	Drug uptake [5] [%]	Drug uptake [6] [%]	Drug uptake [7] [%]	Drug uptake [8] [%]	Drug uptake [9] [%]	Drug uptake [10] [%]	Drug uptake [11] [%]	Drug uptake [12] [%]	Drug uptake [13] [%]	Drug uptake [14] [%]	Drug uptake [15] [%]	Drug uptake [16] [%]	Drug uptake [17] [%]	Drug uptake [18] [%]	Drug uptake [19] [%]	Drug uptake [20] [%]	further results	SMILES
2.3	0.77	0.3	16.5	5.7	12.2	0.23	3.2	1.5	7	2.2	4	10.3	7.2	1	0.72	5.3	1.5	13.2	8.8	Drug uptake [21]: 0.82%; Drug uptake [22]: 1.8%; Drug uptake [23]: 18.8%; Drug uptake [24]: 7%; Drug uptake [25]: 0.43%; Drug uptake [26]: 4.8%; Drug uptake [27]: 2.9%; Drug uptake [28]: 1.3%; Drug uptake [29]: 0.14%; Drug uptake [30]: 17.3%; Drug uptake [31]: 23.7%; Drug uptake [32]: 0.37%; logD [33]: 1.22	CCN(CC)CCNC(=O)c1ccnc([18F])c1
5.3	1.4	1.8	15.8	12.1	4.8	3.1	7.4	2	8.2	5.4	3.89	11.2	5.3	2	4.2	3.3	2.9	8.5	5.3	Drug uptake [21]: 2.4%; Drug uptake [22]: 4.5%; Drug uptake [23]: 14.3%; Drug uptake [24]: 4%; Drug uptake [25]: 1%; Drug uptake [26]: 10.2%; Drug uptake [27]: 5.8%; Drug uptake [28]: 4.1%; Drug uptake [29]: 2.2%; Drug uptake [30]: 11.3%; Drug uptake [31]: 12.7%; Drug uptake [32]: 3.1%; logD [33]: 1.52	CCCCN(C)CCCCNC(=O)c1ccc([18F])nc1
2.5	4.6	0.7	27.4	5	14.6	3.6	9.2	3.4	7.8	2.2	4.8	11.8	4.8	3.2	7.1	6.8	2.1	14.7	17.3	Drug uptake [21]: 1.9%; Drug uptake [22]: 1.5%; Drug uptake [23]: 36.3%; Drug uptake [24]: 10.6%; Drug uptake [25]: 5.6%; Drug uptake [26]: 4.5%; Drug uptake [27]: 7.1%; Drug uptake [28]: 0.5%; Drug uptake [29]: 0.2%; Drug uptake [30]: 36.7%; Drug uptake [31]: 38%; Drug uptake [32]: 0.35%; logD [33]: 0.94	CCN(CC)CCNC(=O)c1cccnc1[18F]
